Like-named read-outs stand apart in the source and are kept apart here.
What was measured:
Type in all cases: binding
[1] = molecular target: various enzymes (Homo sapiens, UniProt P35968); conditions: compound 1 uM
Procedure: (§1) Ambit profiling was conducted in accordance with the manufacturer's instructions.

[2] = molecular target: various enzymes (Homo sapiens, UniProt O00238); conditions: compound 1 uM
Procedure: as §1

[3] = molecular target: various enzymes (Homo sapiens, UniProt Q9Y2U5); conditions: compound 1 uM
Procedure: as §1

[4] = molecular target: various enzymes (Homo sapiens, UniProt Q96GD4); conditions: compound 1 uM
Procedure: as §1

[5] = molecular target: various enzymes (Homo sapiens, UniProt P54753); conditions: compound 1 uM
Procedure: as §1

[6] = molecular target: various enzymes (Homo sapiens, UniProt P42336, E545K)
Procedure: as §1

[7] = molecular target: various enzymes (Homo sapiens, UniProt P42679); conditions: compound 1 uM
Procedure: as §1

[8] = molecular target: various enzymes (Homo sapiens, UniProt O14920); conditions: compound 1 uM
Procedure: as §1

[9] = molecular target: various enzymes (Homo sapiens, UniProt Q9NSY1); conditions: compound 1 uM
Procedure: as §1

[10] = molecular target: various enzymes (Homo sapiens, UniProt P00519, H396P); conditions: compound 1 uM
Procedure: as §1

[11] = molecular target: various enzymes (Homo sapiens, UniProt P24723); conditions: compound 1 uM
Procedure: as §1

[12] = molecular target: various enzymes (Homo sapiens, UniProt Q96J92); conditions: compound 1 uM
Procedure: as §1

[13] = molecular target: various enzymes (Homo sapiens, UniProt Q8TD19); conditions: compound 1 uM
Procedure: as §1

[14] = molecular target: various enzymes (Homo sapiens, UniProt Q13177); conditions: compound 1 uM
Procedure: as §1

[15] = molecular target: various enzymes (Homo sapiens, UniProt O94921); conditions: compound 1 uM
Procedure: as §1

[16] = molecular target: T1, various enzymes (Homo sapiens, UniProt P36888, F691L, form not given)
T1 construct: other: FLT3(ITD, F691L); 1 uM; other: compound 1 uM
Procedure: as §1

[17] = molecular target: various enzymes (Homo sapiens, UniProt P20794); conditions: compound 1 uM
Procedure: as §1

[18] = molecular target: various enzymes (Homo sapiens, UniProt P54762); conditions: compound 1 uM
Procedure: as §1

[19] = molecular target: various enzymes (Homo sapiens, UniProt Q14004); conditions: compound 1 uM
Procedure: as §1

[20] = molecular target: various enzymes (Homo sapiens, UniProt O75582); conditions: compound 1 uM
Procedure: as §1

[21] = molecular target: various enzymes (Homo sapiens, UniProt Q05397); conditions: compound 1 uM
Procedure: as §1

[22] = molecular target: various enzymes (Homo sapiens, UniProt P00519, M351T)
Procedure: as §1

[23] = molecular target: various enzymes (Homo sapiens, UniProt O60331); conditions: compound 1 uM
Procedure: as §1

[24] = molecular target: various enzymes (Homo sapiens, UniProt Q8N752); conditions: compound 1 uM
Procedure: as §1

[25] = molecular target: various enzymes (Homo sapiens, UniProt Q04771); conditions: compound 1 uM
Procedure: as §1

[26] = molecular target: various enzymes (Homo sapiens, UniProt Q13555); conditions: compound 1 uM
Procedure: as §1

[27] = molecular target: various enzymes (Homo sapiens, UniProt P57059); conditions: compound 1 uM
Procedure: as §1

[28] = molecular target: T2, various enzymes (Homo sapiens, UniProt P36888, D835V, form not given)
T2 construct: other: FLT3(ITD, D835V); 1 uM; other: compound 1 uM
Procedure: as §1

[29] = molecular target: various enzymes (Homo sapiens, UniProt P00519, F317L); conditions: compound 1 uM
Procedure: as §1

[30] = molecular target: various enzymes (Homo sapiens, UniProt O95819); conditions: compound 1 uM
Procedure: as §1

[31] = molecular target: various enzymes (Homo sapiens, UniProt Q9BX84); conditions: compound 1 uM
Procedure: as §1

[32] = molecular target: various enzymes (Homo sapiens, UniProt P08581, M1250T)
Procedure: as §1

[33] = molecular target: various enzymes (Homo sapiens, UniProt P16234); conditions: compound 1 uM
Procedure: as §1

[34] = molecular target: various enzymes (Homo sapiens, UniProt Q9H2K8); conditions: compound 1 uM
Procedure: as §1

[35] = molecular target: various enzymes (Homo sapiens, UniProt P30291); conditions: compound 1 uM
Procedure: as §1

[36] = molecular target: various enzymes (Homo sapiens, UniProt P51813); conditions: compound 1 uM
Procedure: as §1

[37] = molecular target: various enzymes (Homo sapiens, UniProt O15197); conditions: compound 1 uM
Procedure: as §1

[38] = molecular target: various enzymes (Homo sapiens, UniProt P42336, M1043I)
Procedure: as §1

[39] = molecular target: various enzymes (Homo sapiens, UniProt Q99683); conditions: compound 1 uM
Procedure: as §1

[40] = molecular target: various enzymes (Homo sapiens, UniProt Q9BRS2); conditions: compound 1 uM
Procedure: as §1

[41] = molecular target: various enzymes (Homo sapiens, UniProt P51451); conditions: compound 1 uM
Procedure: as §1

[42] = molecular target: various enzymes (Homo sapiens, UniProt Q9HCP0); conditions: compound 1 uM
Procedure: as §1

Sequence of various enzymes (Homo sapiens, UniProt O75582) (O75582 whole entry): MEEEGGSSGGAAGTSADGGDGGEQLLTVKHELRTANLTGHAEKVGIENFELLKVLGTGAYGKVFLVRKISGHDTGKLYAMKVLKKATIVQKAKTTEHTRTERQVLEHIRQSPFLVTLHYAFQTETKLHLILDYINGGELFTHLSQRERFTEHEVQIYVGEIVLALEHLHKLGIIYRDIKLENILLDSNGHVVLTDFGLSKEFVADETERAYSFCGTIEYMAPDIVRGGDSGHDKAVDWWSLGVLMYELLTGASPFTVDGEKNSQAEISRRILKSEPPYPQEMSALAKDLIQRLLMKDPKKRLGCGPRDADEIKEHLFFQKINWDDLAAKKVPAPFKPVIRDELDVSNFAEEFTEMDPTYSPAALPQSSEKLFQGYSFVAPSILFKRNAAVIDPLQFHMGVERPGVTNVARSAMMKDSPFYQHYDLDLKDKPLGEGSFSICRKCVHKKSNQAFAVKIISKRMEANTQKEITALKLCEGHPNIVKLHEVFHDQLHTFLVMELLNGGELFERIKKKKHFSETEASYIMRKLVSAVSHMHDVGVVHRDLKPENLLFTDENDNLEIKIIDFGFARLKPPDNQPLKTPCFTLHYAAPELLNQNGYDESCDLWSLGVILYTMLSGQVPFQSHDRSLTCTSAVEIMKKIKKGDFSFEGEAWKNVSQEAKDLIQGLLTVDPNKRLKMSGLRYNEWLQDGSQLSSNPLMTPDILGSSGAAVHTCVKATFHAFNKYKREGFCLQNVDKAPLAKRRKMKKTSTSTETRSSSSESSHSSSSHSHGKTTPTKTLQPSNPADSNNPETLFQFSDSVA
Sequence of various enzymes (Homo sapiens, UniProt P24723) (P24723 whole entry): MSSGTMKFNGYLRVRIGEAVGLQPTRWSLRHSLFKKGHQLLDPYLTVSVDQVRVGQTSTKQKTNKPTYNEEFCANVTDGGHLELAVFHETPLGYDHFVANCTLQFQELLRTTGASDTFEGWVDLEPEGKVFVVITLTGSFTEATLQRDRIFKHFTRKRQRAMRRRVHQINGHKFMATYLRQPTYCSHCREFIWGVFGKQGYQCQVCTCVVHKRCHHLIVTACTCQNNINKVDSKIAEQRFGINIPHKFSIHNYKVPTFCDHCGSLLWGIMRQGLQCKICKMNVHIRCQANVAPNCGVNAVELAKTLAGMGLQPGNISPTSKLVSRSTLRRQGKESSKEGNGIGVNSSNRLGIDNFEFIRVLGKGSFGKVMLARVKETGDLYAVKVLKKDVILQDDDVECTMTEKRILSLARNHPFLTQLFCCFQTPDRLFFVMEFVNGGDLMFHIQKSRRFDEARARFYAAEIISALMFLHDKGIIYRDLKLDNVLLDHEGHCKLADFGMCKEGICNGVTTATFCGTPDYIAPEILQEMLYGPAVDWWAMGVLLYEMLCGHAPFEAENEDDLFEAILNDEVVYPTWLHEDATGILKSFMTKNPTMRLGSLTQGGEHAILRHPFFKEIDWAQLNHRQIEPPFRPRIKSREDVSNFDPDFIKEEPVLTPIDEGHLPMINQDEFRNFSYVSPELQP
Sequence of various enzymes (Homo sapiens, UniProt P30291) (P30291 whole entry): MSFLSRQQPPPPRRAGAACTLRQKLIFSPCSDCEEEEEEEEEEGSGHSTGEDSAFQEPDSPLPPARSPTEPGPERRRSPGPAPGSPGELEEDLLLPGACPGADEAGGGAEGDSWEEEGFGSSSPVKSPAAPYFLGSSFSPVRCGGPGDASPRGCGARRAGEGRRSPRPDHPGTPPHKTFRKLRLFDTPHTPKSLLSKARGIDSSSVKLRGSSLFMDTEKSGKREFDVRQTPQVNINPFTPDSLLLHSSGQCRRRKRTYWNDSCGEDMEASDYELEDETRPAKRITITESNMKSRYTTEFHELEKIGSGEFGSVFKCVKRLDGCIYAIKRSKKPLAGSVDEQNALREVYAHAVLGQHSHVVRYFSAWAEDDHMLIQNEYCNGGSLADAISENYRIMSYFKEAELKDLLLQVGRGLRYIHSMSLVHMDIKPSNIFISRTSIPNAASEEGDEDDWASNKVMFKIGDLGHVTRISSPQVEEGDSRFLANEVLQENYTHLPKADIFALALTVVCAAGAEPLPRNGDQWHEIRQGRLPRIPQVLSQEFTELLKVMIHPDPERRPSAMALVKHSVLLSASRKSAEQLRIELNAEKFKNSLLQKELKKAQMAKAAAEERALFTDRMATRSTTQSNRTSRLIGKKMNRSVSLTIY
Sequence of various enzymes (Homo sapiens, UniProt Q13555) (Q13555 whole entry): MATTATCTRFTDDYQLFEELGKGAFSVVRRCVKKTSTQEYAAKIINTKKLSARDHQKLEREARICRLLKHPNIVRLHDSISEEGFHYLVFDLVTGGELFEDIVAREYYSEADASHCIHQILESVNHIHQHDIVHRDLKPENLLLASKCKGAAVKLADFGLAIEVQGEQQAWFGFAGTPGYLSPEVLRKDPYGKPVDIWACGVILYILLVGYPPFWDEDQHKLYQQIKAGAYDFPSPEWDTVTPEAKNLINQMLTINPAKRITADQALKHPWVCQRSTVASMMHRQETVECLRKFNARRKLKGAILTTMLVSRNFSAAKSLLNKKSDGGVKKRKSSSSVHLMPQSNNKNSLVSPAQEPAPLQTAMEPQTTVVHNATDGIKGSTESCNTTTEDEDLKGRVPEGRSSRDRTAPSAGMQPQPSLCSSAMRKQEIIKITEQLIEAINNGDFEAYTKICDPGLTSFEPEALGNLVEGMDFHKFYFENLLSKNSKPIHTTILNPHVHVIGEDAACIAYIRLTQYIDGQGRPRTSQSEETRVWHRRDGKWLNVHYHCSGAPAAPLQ
Sequence of various enzymes (Homo sapiens, UniProt Q04771) (Q04771 21-509): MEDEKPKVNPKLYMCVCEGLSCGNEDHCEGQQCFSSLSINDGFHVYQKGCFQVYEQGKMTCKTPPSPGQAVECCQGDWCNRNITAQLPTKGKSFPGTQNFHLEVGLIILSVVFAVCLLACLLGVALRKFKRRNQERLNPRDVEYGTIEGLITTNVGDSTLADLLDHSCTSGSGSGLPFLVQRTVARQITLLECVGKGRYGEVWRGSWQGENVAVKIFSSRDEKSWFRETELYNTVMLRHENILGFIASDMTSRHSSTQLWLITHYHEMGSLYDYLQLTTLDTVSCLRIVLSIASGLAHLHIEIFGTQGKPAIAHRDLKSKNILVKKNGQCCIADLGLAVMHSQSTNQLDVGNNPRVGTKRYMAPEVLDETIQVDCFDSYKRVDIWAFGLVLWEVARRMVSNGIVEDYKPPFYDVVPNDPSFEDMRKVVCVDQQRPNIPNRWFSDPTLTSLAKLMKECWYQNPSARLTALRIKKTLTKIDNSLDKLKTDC
Sequence of various enzymes (Homo sapiens, UniProt P20794) (P20794 whole entry): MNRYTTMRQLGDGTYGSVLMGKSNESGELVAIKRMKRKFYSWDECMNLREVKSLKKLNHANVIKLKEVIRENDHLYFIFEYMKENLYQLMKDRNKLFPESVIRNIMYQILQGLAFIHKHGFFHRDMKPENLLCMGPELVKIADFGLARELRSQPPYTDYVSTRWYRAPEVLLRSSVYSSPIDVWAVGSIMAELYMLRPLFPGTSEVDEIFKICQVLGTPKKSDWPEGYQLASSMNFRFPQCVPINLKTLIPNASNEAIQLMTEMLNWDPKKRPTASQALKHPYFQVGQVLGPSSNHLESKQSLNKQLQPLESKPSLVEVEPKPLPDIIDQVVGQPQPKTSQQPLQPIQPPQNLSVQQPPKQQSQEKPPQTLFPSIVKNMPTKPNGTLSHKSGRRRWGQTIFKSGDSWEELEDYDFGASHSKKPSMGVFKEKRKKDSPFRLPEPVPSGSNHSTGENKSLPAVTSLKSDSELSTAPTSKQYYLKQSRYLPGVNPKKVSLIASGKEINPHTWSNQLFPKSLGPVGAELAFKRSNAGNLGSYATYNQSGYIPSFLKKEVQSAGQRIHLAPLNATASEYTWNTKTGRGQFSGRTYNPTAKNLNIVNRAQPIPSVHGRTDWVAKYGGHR
Sequence of various enzymes (Homo sapiens, UniProt P51451) (P51451 whole entry): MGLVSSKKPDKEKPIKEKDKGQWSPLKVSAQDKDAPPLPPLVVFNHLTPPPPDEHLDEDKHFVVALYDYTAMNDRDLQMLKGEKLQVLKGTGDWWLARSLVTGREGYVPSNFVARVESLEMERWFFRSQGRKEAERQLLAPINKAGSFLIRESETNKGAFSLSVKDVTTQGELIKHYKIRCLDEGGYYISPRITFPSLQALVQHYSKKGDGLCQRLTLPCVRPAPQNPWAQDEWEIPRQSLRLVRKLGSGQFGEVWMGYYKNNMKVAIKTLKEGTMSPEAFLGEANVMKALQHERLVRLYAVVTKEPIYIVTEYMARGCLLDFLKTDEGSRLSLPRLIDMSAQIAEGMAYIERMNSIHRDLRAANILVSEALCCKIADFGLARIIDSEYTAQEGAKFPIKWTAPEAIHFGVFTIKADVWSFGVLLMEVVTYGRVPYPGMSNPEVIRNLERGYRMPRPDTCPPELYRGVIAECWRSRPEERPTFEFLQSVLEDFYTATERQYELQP
Sequence of various enzymes (Homo sapiens, UniProt Q8N752) (Q8N752 whole entry): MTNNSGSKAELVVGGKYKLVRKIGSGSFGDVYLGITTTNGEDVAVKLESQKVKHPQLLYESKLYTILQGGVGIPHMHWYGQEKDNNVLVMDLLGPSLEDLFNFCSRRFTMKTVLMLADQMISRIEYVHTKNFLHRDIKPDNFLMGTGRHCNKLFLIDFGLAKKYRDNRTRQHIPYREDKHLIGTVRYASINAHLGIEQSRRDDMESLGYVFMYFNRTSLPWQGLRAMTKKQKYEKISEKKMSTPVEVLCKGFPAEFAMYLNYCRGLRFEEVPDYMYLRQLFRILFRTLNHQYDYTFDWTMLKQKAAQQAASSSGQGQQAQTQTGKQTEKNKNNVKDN
Sequence of various enzymes (Homo sapiens, UniProt Q96GD4) (Q96GD4 whole entry): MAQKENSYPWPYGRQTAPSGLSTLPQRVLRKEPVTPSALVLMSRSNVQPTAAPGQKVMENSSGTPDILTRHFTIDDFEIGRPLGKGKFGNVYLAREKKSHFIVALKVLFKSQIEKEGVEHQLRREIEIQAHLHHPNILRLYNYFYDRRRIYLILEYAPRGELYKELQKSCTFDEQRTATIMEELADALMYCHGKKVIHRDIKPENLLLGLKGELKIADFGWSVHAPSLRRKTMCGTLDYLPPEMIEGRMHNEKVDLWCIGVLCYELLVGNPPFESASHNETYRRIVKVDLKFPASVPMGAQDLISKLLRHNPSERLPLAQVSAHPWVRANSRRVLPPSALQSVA

## CC(C)N1Cc2nn(C)cc2-c2cnc3[nH]cc(c3c2)-c2cn(nc2C(F)(F)F)CCCC1=O [Compound 45, (Z)-5-isopropyl-31-methyl-13-(trifluoromethyl)-11H,21H,31H-5-aza-2(3,5)-pyrrolo[2,3-b]pyridina-1(4,1),3(4,3)-dipyrazolacyclononaphan-6-one]
[1]
  Ambit profiling: VEGFR2: 2
[2]
  Ambit profiling: BMPR1B: 6.8
[3]
  Ambit profiling: MAP3K2: 0.45
[4]
  Ambit profiling: AURKB: 5.7
[5]
  Ambit profiling: EPHB3: 97
[6]; compound 1 uM
  Ambit profiling: PIK3CA(E545K): 51
[7]
  Ambit profiling: CTK: 70
[8]
  Ambit profiling: IKK-beta: 100
[9]
  Ambit profiling: BIKE: 1.2
[10]
  Ambit profiling: ABL1(H396P)-nonphosphorylated: 1.9
  Ambit profiling: ABL1(H396P)-phosphorylated: 24
[11]
  Ambit profiling: PRKCH: 100
[12]
  Ambit profiling: WNK4: 97
[13]
  Ambit profiling: NEK9: 100
[14]
  Ambit profiling: PAK2: 74
[15]
  Ambit profiling: PFTK1: 14
[16]; compound 1 uM
  Ambit profiling: FLT3(ITD, F691L): 0
[17]
  Ambit profiling: MAK: 34
[18]
  Ambit profiling: EPHB1: 51
[19]
  Ambit profiling: CDC2L5: 99
[20]
  Ambit profiling: RPS6KA5(Kin.Dom.1-N-terminal): 70
  Ambit profiling: RPS6KA5(Kin.Dom.2-C-terminal): 100
[21]
  Ambit profiling: FAK: 20
[22]; compound 1 uM
  Ambit profiling: ABL1(M351T)-phosphorylated: 19
[23]
  Ambit profiling: PIP5K1C: 5.8
[24]
  Ambit profiling: CSNK1A1L: 100
[25]
  Ambit profiling: ACVR1: 18
[26]
  Ambit profiling: CAMK2G: 24
[27]
  Ambit profiling: SIK: 74
[28]; compound 1 uM
  Ambit profiling: FLT3(ITD, D835V): 0
[29]
  Ambit profiling: ABL1(F317L)-nonphosphorylated: 55
  Ambit profiling: ABL1(F317L)-phosphorylated: 25
[30]
  Ambit profiling: MAP4K4: 3.5
[31]
  Ambit profiling: TRPM6: 83
[32]; compound 1 uM
  Ambit profiling: MET(M1250T): 4.3
[33]
  Ambit profiling: PDGFRA: 11
[34]
  Ambit profiling: TAOK3: 22
[35]
  Ambit profiling: WEE1: 73
[36]
  Ambit profiling: BMX: 35
[37]
  Ambit profiling: EPHB6: 4.8
[38]; compound 1 uM
  Ambit profiling: PIK3CA(M1043I): 81
[39]
  Ambit profiling: ASK1: 100
[40]
  Ambit profiling: RICK1: 1.4
[41]
  Ambit profiling: BLK: 3.7
[42]
  Ambit profiling: CSNK1G1: 100

## COc1c2c(nn1C)CN(C(C)C)C(=O)CCCn1cc(c(C(F)(F)F)n1)-c1c[nH]c3ncc-2cc13 [Compound 50, (Z)-5-isopropyl-35-methoxy-31-methyl-13-(trifluoromethyl)-11H,21H,31H-5-aza-2(3,5)-pyrrolo[2,3-b]pyridina-1(4,1),3(4,3)-dipyrazolacyclononaphan-6-one]
[1]
  Ambit profiling: VEGFR2: 0.8
[2]
  Ambit profiling: BMPR1B: 5.1
[3]
  Ambit profiling: MAP3K2: 0.5
[4]
  Ambit profiling: AURKB: 18
[5]
  Ambit profiling: EPHB3: 62
[6]
  Ambit profiling: PIK3CA(E545K): 74
[7]
  Ambit profiling: CTK: 53
[8]
  Ambit profiling: IKK-beta: 87
[9]
  Ambit profiling: BIKE: 10
[10]
  Ambit profiling: ABL1(H396P)-nonphosphorylated: 0.2
  Ambit profiling: ABL1(H396P)-phosphorylated: 3.9
[11]
  Ambit profiling: PRKCH: 85
[12]
  Ambit profiling: WNK4: 100
[13]
  Ambit profiling: NEK9: 82
[14]
  Ambit profiling: PAK2: 100
[15]
  Ambit profiling: PFTK1: 60
[16]
  Ambit profiling: FLT3(ITD, F691L): 0
[17]
  Ambit profiling: MAK: 77
[18]
  Ambit profiling: EPHB1: 48
[19]
  Ambit profiling: CDC2L5: 89
[20]
  Ambit profiling: RPS6KA5(Kin.Dom.1-N-terminal): 18
  Ambit profiling: RPS6KA5(Kin.Dom.2-C-terminal): 72
[21]
  Ambit profiling: FAK: 5.3
[22]
  Ambit profiling: ABL1(M351T)-phosphorylated: 4.1
[23]
  Ambit profiling: PIP5K1C: 32
[24]
  Ambit profiling: CSNK1A1L: 67
[25]
  Ambit profiling: ACVR1: 14
[26]
  Ambit profiling: CAMK2G: 31
[27]
  Ambit profiling: SIK: 57
[28]
  Ambit profiling: FLT3(ITD, D835V): 0.55
[29]
  Ambit profiling: ABL1(F317L)-nonphosphorylated: 35
  Ambit profiling: ABL1(F317L)-phosphorylated: 2.5
[30]
  Ambit profiling: MAP4K4: 3
[31]
  Ambit profiling: TRPM6: 100
[32]
  Ambit profiling: MET(M1250T): 4.2
[33]
  Ambit profiling: PDGFRA: 5.6
[34]
  Ambit profiling: TAOK3: 63
[35]
  Ambit profiling: WEE1: 38
[36]
  Ambit profiling: BMX: 24
[37]
  Ambit profiling: EPH86: 0.7
[38]
  Ambit profiling: PIK3CA(M1043I): 86
[39]
  Ambit profiling: ASK1: 100
[40]
  Ambit profiling: RIOK1: 16
[41]
  Ambit profiling: BLK: 1.6
[42]
  Ambit profiling: CSNK1G1: 81
